Legend:
Type in all cases: functional
Mus musculus [1] = experiment: Neuroprotective activity in Mus musculus Swiss albino (mouse) model assessed as reduction in haloperidol-induced catalepsy at 100 mg/kg, ip administered 30 min before haloperidol challenge measured for 30 to 180 min; set-up: scale not given: the % may be the effect or the level left; conditions: route intraperitoneal
Mus musculus [2] = experiment: Neuroprotective activity in haloperidol-induced catalepsy Mus musculus Swiss albino (mouse) model assessed as mean cumulative descent time at 100 mg/kg, po administered 30 min before haloperidol challenge (reference value: 33 +/- 1.34 min)
Mus musculus [3] = experiment: Neuroprotective activity in haloperidol-induced catalepsy Mus musculus Swiss albino (mouse) model assessed as mean descent time at 100 mg/kg, po administered 30 min before haloperidol challenge measured at 30 min post challenge
Mus musculus [4] = experiment: Neuroprotective activity in haloperidol-induced catalepsy Mus musculus Swiss albino (mouse) model assessed as mean descent time at 100 mg/kg, po administered 30 min before haloperidol challenge measured at 60 min post challenge
Mus musculus [5] = experiment: Neuroprotective activity in haloperidol-induced catalepsy Mus musculus Swiss albino (mouse) model assessed as mean descent time at 100 mg/kg, po administered 30 min before haloperidol challenge measured at 90 min post challenge
Mus musculus [6] = experiment: Neuroprotective activity in haloperidol-induced catalepsy Mus musculus Swiss albino (mouse) model assessed as mean descent time at 100 mg/kg, po administered 30 min before haloperidol challenge measured at 120 min post challenge
Mus musculus [7] = experiment: Neuroprotective activity in haloperidol-induced catalepsy Mus musculus Swiss albino (mouse) model assessed as mean descent time at 100 mg/kg, po administered 30 min before haloperidol challenge measured at 150 min post challenge
Mus musculus [8] = experiment: Neuroprotective activity in haloperidol-induced catalepsy Mus musculus Swiss albino (mouse) model assessed as mean descent time at 100 mg/kg, po administered 30 min before haloperidol challenge measured at 180 min post challenge
Mus musculus [9] = experiment: (§1) Neuroprotective activity in haloperidol-induced catalepsy Mus musculus Swiss albino (mouse) model assessed as GSH-Px activity per mg protein in brain homogenate at 100 mg/kg, po administered 30 min before haloperidol challenge measured after 4 hr post challenge by spectrophotometry (reference value: 2.129 +/- 0.06 U/mg protein)
Mus musculus [10] = experiment: as §1, with “as Cu-Zn-SOD” for “as GSH-Px”, “per gram” for “per mg”, “by NBT reduction assay” for “by spectrophotometry”, “value: 1.794” for “value: 2.129”, “+/- 0.03 U/g” for “+/- 0.06 U/mg”
Mus musculus [11] = experiment: as §1, with “GSH level” for “GSH-Px activity”, “gram of” for “mg protein in”, “tissue” for “homogenate”, “23.45” for “2.129”, “0.23 ug/g tissue)” for “0.06 U/mg protein)”
Mus musculus [12] = experiment: as §1, with “inhibition of MDA equivalent TBARS release” for “GSH-Px activity”, “1.157” for “2.129”, “nmol/mg” for “U/mg”

Structure (SMILES)	Activity (Mus musculus [1]) [%]	Time (Mus musculus [2]) [min]	Time (Mus musculus [3]) [s]	Time (Mus musculus [4]) [s]	Time (Mus musculus [5]) [s]	Time (Mus musculus [6]) [s]	Time (Mus musculus [7]) [s]	Time (Mus musculus [8]) [s]	Activity (Mus musculus [9]) [U/mg]	Activity (Mus musculus [10]) [U/g protein]	Activity (Mus musculus [11]) [µg/g]	Activity (Mus musculus [12]) [nmol/mg protein]
O=C(Nc1nc2c(ccc3ccccc32)s1)Nc1ccccc1Br	38.74	16.1	77	131	145	197	219	200				
O=C(Nc1ccc(Br)cc1)Nc1nc2c(ccc3ccccc32)s1	37.76	16.4	82	123	156	191	214	218				
O=C(Nc1nc2c(ccc3ccccc32)s1)Nc1ccccc1Cl	37.37	16.5	59	141	159	188	211	232				
O=C(Nc1ccc(Cl)cc1)Nc1nc2c(ccc3ccccc32)s1	38.61	16.2	78	127	171	202	199	194				
O=C(Nc1nc2c(ccc3ccccc32)s1)Nc1cc(C(F)(F)F)ccc1Cl	51.37	12.9	67	114	141	156	150	148				
O=C(Nc1nc2c(ccc3ccccc32)s1)Nc1ccccc1[N+](=O)[O-]	72.05	7.67	19	54	57	87	98	145				
O=C(Nc1ccc([N+](=O)[O-])cc1)Nc1nc2c(ccc3ccccc32)s1	31.28	18.1	51	113	176	229	245	269				
Cc1ccccc1NC(=O)Nc1nc2c(ccc3ccccc32)s1	47.64	13.9	71	116	138	166	170	172				
Cc1ccc(NC(=O)Nc2nc3c(ccc4ccccc43)s2)cc1	48.56	13.7	69	113	137	161	168	171				
S=C(Nc1ccccc1)Nc1nc2c(ccc3ccccc32)s1	44.63	14.7	65	129	151	178	174	182				
COc1ccc(NC(=S)Nc2nc3c(ccc4ccccc43)s2)cc1	58.05	11.2	44	112	116	128	129	145				
COc1ccccc1NC(=S)Nc1nc2c(ccc3ccccc32)s1	75.46	6.8	19	44	65	87	98	95	2.1	1.684	13.1	2.045
Fc1ccccc1NC(=S)Nc1nc2c(ccc3ccccc32)s1	38.35	16.2	57	143	152	183	206	234				
Fc1ccc(NC(=S)Nc2nc3c(ccc4ccccc43)s2)cc1	34.95	17.1	43	98	167	246	232	241				
O=C(CCCN1CCC(O)(c2ccc(Cl)cc2)CC1)c1ccc(F)cc1 [HALOPERIDOL]		26	176	217	268	300	300	300	1.14		6.85	
N[C@@H](Cc1ccc(O)c(O)c1)C(=O)O [LEVODOPA]	65.64	9.3	32	49	99	119	122	137				
